Values quoted from earlier work, collected in patent publication US20170196794A1, “Oral Composition” (Kao Corporation, priority 2014, published 2017).

Details: 20° C.

Question: With `OC[C@@H](O)[C@@H](O)[C@H](O)[C@@H](O)CO` [sorbitol] as the compound, how does the solubility in water read?
Answer: 72 % by mass

Question: Which solubility in water does the source give for `OC[C@@H](O)[C@@H](O[C@H]1O[C@H](CO)[C@@H](O)[C@H](O)[C@H]1O)[C@H](O)[C@@H](O)CO` [maltitol] here?
Answer: 60 % by mass

Question: For `OC[C@@H](O)[C@@H](O)[C@H](O)[C@H](O)CO` [mannitol], which solubility in water is on record?
Answer: 18 % by mass

Question: For `OC[C@@H](O)[C@@H](O)CO` [erythritol], which solubility in water is on record?
Answer: 33 % by mass

Question: For `OC[C@@H](O)[C@H](O)[C@@H](O)CO` [xylitol], which solubility in water is on record?
Answer: 66 % by mass
